Measured values as given in patent US7105675B2, “Pyridomorphinans, thienomorphinans and use thereof” (Southern Research Institute, priority 1999, dated 2006).
Read-outs that look alike come from different tables or passages of the source.

Legend:
[1] = target: T1, δ opioid receptor (DPDPE) in MVD (Mus musculus, UniProt P32300); conditions: data taken from Ananthan et al.; cited from earlier work
T1 construct: Electrically-induced smooth muscle contractions of mouse vas deferens and strips of guinea pig ileum longitudinal muscle myenteric plexus were used; from tissue; host or cells: mouse vas deferens (male ICR mice)
T1 sequence (P32300 whole entry): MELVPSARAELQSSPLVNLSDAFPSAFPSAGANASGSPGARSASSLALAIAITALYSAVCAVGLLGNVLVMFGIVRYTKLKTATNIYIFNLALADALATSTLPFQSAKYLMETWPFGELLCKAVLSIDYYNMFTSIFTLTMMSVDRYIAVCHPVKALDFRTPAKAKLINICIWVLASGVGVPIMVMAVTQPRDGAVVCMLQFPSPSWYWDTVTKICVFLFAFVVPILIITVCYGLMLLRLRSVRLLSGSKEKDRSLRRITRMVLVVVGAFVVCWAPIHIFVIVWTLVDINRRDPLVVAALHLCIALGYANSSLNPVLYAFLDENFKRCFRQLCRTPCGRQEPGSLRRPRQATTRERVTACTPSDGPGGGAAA

[2] = test system: guinea pig ileum longitudinal muscle myenteric plexus; conditions: percentage inhibition of contraction at 1 μM; data taken from Ananthan et al.; cited from earlier work
[3] = target: T2, δ opioid receptor (Rattus norvegicus, UniProt P33533); conditions: data taken from Ananthan et al., cited from earlier work
T2 sequence (P33533 whole entry): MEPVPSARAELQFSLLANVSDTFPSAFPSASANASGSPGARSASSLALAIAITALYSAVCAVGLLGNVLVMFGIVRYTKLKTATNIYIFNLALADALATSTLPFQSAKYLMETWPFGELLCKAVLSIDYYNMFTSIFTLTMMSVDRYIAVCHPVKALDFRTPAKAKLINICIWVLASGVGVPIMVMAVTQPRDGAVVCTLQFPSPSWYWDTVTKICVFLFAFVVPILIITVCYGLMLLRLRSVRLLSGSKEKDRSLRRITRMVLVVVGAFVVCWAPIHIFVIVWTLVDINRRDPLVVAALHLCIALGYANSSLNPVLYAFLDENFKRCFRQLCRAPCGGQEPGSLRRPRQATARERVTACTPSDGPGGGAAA

[4] = test system: μ opioid receptor (PL017) in GPI; conditions: data taken from Ananthan et al.; cited from earlier work
[5] = test system: mouse vas deferens; conditions: percentage inhibition of contraction at 1 μM; data taken from Ananthan et al.; cited from earlier work
[6] = target: T3, κ1 opioid receptor (Cavia porcellus, UniProt P41144); conditions: read-out: Ki (nM) ± SEM κ1; [3H]U69,593, guinea pig brain membranes; data taken from Ananthan et al.; cited from earlier work
T3 construct: Guinea pig brain membranes were prepared each day using partially thawed guinea pig brain; from tissue; host or cells: guinea pig brain membranes
T3 sequence (P41144 whole entry): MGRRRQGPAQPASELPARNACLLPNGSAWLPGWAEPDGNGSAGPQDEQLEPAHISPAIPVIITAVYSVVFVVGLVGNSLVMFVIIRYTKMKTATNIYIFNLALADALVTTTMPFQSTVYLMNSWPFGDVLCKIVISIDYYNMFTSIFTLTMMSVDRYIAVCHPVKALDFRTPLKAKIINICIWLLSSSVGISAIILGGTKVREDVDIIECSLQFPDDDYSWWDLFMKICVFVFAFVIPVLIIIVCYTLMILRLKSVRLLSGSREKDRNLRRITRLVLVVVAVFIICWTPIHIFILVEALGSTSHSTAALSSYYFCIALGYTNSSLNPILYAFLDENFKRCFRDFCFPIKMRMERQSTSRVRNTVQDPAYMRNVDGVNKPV

[7] = target: T4, μ opioid receptor (Rattus norvegicus, UniProt P33535); conditions: read-out: Ki (nM) ± SEM μ; [3H]DAMGO, rat brain membranes; data taken from Ananthan et al.; cited from earlier work
T4 construct: Rat membranes were prepared each day using a partially thawed frozen rat brain; from tissue; host or cells: rat brain membranes
T4 sequence (P33535 whole entry): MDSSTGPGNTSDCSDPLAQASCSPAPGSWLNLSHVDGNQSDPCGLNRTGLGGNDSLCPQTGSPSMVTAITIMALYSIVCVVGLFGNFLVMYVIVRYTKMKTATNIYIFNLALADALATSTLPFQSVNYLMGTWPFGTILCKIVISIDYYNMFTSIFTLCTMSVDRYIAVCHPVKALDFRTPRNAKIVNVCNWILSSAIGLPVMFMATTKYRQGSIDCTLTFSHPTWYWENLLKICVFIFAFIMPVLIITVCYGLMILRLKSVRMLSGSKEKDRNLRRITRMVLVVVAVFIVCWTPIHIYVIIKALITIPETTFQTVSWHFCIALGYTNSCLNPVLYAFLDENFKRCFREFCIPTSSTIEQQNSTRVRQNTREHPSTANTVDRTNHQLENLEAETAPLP

[8] = target: T4, μ opioid receptor; assay: Radioligand binding, mu sites, displacement of [3H]DAMGO in rat brain membranes
Description: (§1) Radioligand Binding Assays. Mu binding sites were labeled using [^3H]DAMGO (1–3 nM). Rat membranes were prepared each day using a partially thawed frozen rat brain which was homogenized with a polytron in 10 mL/brain of ice cold 10 mM Tris-HCl, pH 7.0. Membranes were then centrifuged twice at 30,000 g for 10 min and resuspended with ice-cold buffer following each centrifugation. After the second centrifugation, the membranes were resuspended in 50 mM Tris-HCl, pH 7.4 (50 mL/brain) at 25° C. Incubations proceeded for 2 h at 25° C. in 50 mM Tris-HCl, pH 7.4, along with a protease inhibitor cocktail (PIC). The nonspecific binding was determined using 20 μM of levallorphan. Delta binding sites were labeled using [^3]DADLE (2 nM) and rat brain membranes. Rat membranes were prepared each day using a partially thawed frozen rat brain which was homogenized with a polytron in 10 mL/brain of ice cold 10 mM Tris-HCl, pH 7.0. Membranes were then centrifuged twice at 30,000 g for 10 min and resuspended with ice-cold buffer following each centrifugation. After the second centrifugation, the membranes were resuspended in 50 mM Tris-HCl, pH 7.4 (50 mL/brain) at 25° C. Incubations proceeded for 2 h at 25° C. in 50 mM Tris-HCl pH 7.4, containing 100 mM choline chloride, 3 mM MnCl2, and 100 nM DAMGO to block binding to μ sites, and PIC. Nonspecific binding was determined using 20 μM levallorphan. Kappa binding sites were labeled using [^3H]U69,593 (2 nM). Guinea pig brain membranes were prepared each day using partially thawed guinea pig brain which was homogenized with a polytron in 10 mL/brain of ice cold 10 mM Tris-HCl pH 7.0. The membranes were then centrifuged twice at 30,000 g for 10 min and resuspended with ice-cold buffer following each centrifugation. After the second centrifugation, the membranes were resuspended in 50 mM Tris-HCl, pH 7.4 (75 mL/brain) at 25° C. Incubations proceeded for 2 h at 25° C. in 50 mM Tris-HCl, pH 7.4, containing 1 μg/mL of captopril and PIC. Nonspecific binding was determined using 1 μM U69,593. Each ^3H ligand was displaced by 8–10 concentrations of test drug, two times. Compounds were prepared as 1 mM solution with 10 mM Tris buffer (pH 7.4) containing 10% DMSO before drug dilution. All drug dilutions were done at 10 mM Tris-HCl, pH 7.4, containing 1 mg/mL bovine serum albumin. All washes were done with ice-cold 10 mM Tris-HCl, pH 7.4. The IC50 and slope factor (N) were obtained by using the program MLAB-PC (Civilized Software, Bethesda, Md.). Ki values were calculated according to the equation Ki=IC50/(1+[L]/Kd).

[9] = target: T2, δ opioid receptor; assay: Radioligand binding, delta sites, displacement of [3H]DADLE in rat brain membranes; design: Rat membranes were prepared each day using a partially thawed frozen rat brain; from tissue; host or cells: rat brain membranes; conditions: for Selectivity Ratio κ1δ / Selectivity Ratio μ/δ: thienomorphinans, ratio of Ki values
Description: as §1

[10] = target: T1, δ opioid receptor (DPDPE) in MVD; assay: Antagonist activity against DPDPE in electrically stimulated mouse vas deferens (MVD); assay type: cell-based; conditions: for antagonist activity DPDPE (δ) MVD IC50 ratio: 1 μM compound, 30 min incubation, IC50 of DPDPE with antagonist divided by control IC50; for Ke selectivity ratio μδ: Ke GPI (μ) over Ke MVD (δ)
Description: (§2) Bioassays in GPI and MVD smooth muscle preparations. Electrically-induced smooth muscle contractions of mouse vas deferens and strips of guinea pig ileum longitudinal muscle myenteric plexus were used. Tissues came from maile ICR mice weighing 25–40 g and male Hartley guinea pigs weighing 250–500 g. The tissues were tied to gold chain with suture silk, suspended in 20 mL baths containing 37° C. oxygenated (95% O2, 5% CO2) Krebs bicarbonate solution (magnesium free for the MVD), and allowed to equilibrate for 15 min. The tissues were then stretched to optimal length previously determined to be 1 g tension (0.5 g for MVD) and allowed to equilibrate for 15 min. The tissues were stimulated transmurally between platinum wire electrodes at 0.1 Hz, 0.4 ms pulses (2-ms pulses for MVD), and supramaximal voltage. An initial dose-response curve of DPDPE or PL-017 was constructed at the start of each assay to establish tissue effects, allowing each tissue to be used as its own control.
(§3) Tissues not producing typical results were not used. Experimental compounds were added to the baths in 14–60 μL volumes. Succeeding doses of argonist were added cumulatively to the bath at 3 minute intervals to produce a concentration-response curve. The tissues were then washed extensively with fresh buffer until the original contraction height was re-established. […] Antagonist effects to DPDPE and PL-017 were assayed after incubation of the tissues with 1 μM concentration of the compound in the bath for 30 minutes. The tissues were then washed with fresh buffer for 30 min, and the agonist dose-response curve was repeated. Rightward shifts in the dose-response curves were calculated by dividing the antagonized dose-response curve IC50 value by the unantagoniced IC50 value. IC50 values represent the mean of two to four tissues. IC50 estimates and their associated standard errors were determined by using a computerized nonlinear least-squares method.

[11] = test system: guinea pig ileum longitudinal muscle myenteric plexus; assay: Agonist activity in GPI smooth muscle preparation, inhibition of contraction; assay type: cell-based; conditions: Cavia porcellus; read-out: agonist activity GPI IC50 (nM) or % max resp
Description: as §2, §3

[12] = test system: μ opioid receptor (PL017) in GPI; assay: Antagonist activity against PL-017 in electrically stimulated guinea pig ileum (GPI); assay type: cell-based; conditions: for antagonist activity PL017 (μ) GPI IC50 ratio: 1 μM compound, 30 min incubation, IC50 of PL-017 with antagonist divided by control IC50; for antagonist activity PL017 (μ) GPI Ke: Ke = [antagonist]/(IC50 ratio − 1), PL-017 as agonist, n = 3
Description: as §2, §3

[13] = target: T3, κ1 opioid receptor; assay: Radioligand binding, kappa sites, displacement of [3H]U69,593 in guinea pig brain membranes
Description: as §1

[14] = test system: mouse vas deferens; assay: Agonist activity in MVD smooth muscle preparation, inhibition of contraction; assay type: cell-based; conditions: read-out: agonist activity MVD IC50 (nM) or % max resp
Description: as §2, §3

| Structure (SMILES) | Ki [8] [nM] | Ki [9] [nM] | Selectivity Ratio κ1δ [9] | Selectivity Ratio μ/δ [9] | Kb [10] [nM] | antagonist activity DPDPE (δ) MVD IC50 ratio [10] | Ke selectivity ratio μδ [10] | inhibition at 1 µM [11] [%] | antagonist activity PL017 (μ) GPI IC50 ratio [12] | antagonist activity PL017 (μ) GPI Ke [12] [nM] | Ki [13] [nM] | inhibition at 1 µM [14] [%] | further results |
| --- | --- | --- | --- | --- | --- | --- | --- | --- | --- | --- | --- | --- | --- |
| Oc1ccc2c3c1OC1c4ncccc4CC4(O)C(C2)N(CC2CC2)CCC314 (stereo not drawn) [Compound 7a] |  |  |  |  |  |  |  |  |  |  |  |  | Ke selectivity ratio μδ [1]: 4.4; antagonist activity DPDPE (δ) MVD IC50 ratio [1]: 27.9 ± 1.2; antagonist activity DPDPE (δ) MVD Ke [1]: 37 nM; agonist activity GPI IC50 (nM) or % max resp [2]: 0%; Selectivity Ratio κ1δ ([3]; ratio of Ki values): 11; Selectivity Ratio μ/δ ([3]; ratio of Ki values): 1.9; Ki ([3]; read-out: Ki (nM) ± SEM δ, [3H]DADLE, rat brain membranes): 0.78 ± 0.06 nM; antagonist activity PL017 (μ) GPI IC50 ratio [4]: 7.08 ± 3.44; antagonist activity PL017 (μ) GPI Ke [4]: 164 nM; agonist activity MVD IC50 (nM) or % max resp [5]: 0%; Ki [6]: 8.8 ± 0.69 nM; Ki [7]: 1.5 ± 0.09 nM |
| NC(=O)c1c(N)sc2c1[C@@H]1Oc3c(O)ccc4c3[C@@]13CCN(CC1CC1)[C@H](C4)[C@]3(O)C2 [Compound 8e, 5′-Amino-4′-aminocarbonyl-17-(cyclopropylmethyl)-6,7-didehydro-3,14-dihydroxy-4,5α-epoxythieno[2′,3′:7,6]morphinan] | 21 ± 1.3 | 3.7 ± 0.2 | 0.5 | 5.7 | 10 | 118.6 ± 38.4 | 2.4 | 4 | 47.8 ± 10.7 | 24 | 2 ± 0.2 | 5 |  |
| Nc1sc2c(c1C(=O)c1ccccc1)[C@@H]1Oc3c(O)ccc4c3[C@@]13CCN(CC1CC1)[C@H](C4)[C@]3(O)C2 [Compound 8f, 5′-Amino-4′-benzoyl-17-(cyclopropylmethyl)-6,7-didehydro-3,14-dihydroxy-4,5α-epoxythieno[2′,3′:7,6]morphinan] | 50 ± 3 | 14 ± 0.7 | 1.0 | 3.6 | 46 | 24.4 ± 4.0 | 1.3 | 25 | 21.6 ± 7.7 | 62 | 14 ± 0.7 | 15 |  |
